Laboratory results published in US20050095281A1, “Liposomal formulations and methods of use” (OPTIME Therapeutics, Inc., priority 2003, published 2005).

Legend:
[1] = tested on: Lactobacillus; details: previously shown; cited from earlier work
[2] = tested on: human cervical epithelium; assay: Histological evaluation of excised human cervical tissue ex vivo (Franz diffusion cell); details: 2% polysorbate 80 (data not shown)

## COC(=O)c1ccc(O)cc1 [methylparaben]
[1]
  toxicity of preservatives to Lactobacillus: nontoxic

## polysorbate 80
[2]
  histological changes in human cervical epithelium: Severe shedding of the epithelial layers

## CCCOC(=O)c1ccc(O)cc1 [propylparaben]
[1]
  toxicity of preservatives to Lactobacillus: nontoxic
